# Data as given in PubChem BioAssay (NCI).
#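 48-hour exposure; five concentrations; linearly interpolated endpoints. The concentration for 50% growth inhibition is given as GI50. TGI marks complete inhibition of growth.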
# What was measured:
# Experiment in all cases: NCI tumour cell line growth inhibition, 48 h
# CCRF-CEM leukemia = system: CCRF-CEM leukemia
# HCT-15 colon = system: HCT-15 colon
# HL-60(TB) leukemia = system: HL-60(TB) leukemia
# MOLT-4 leukemia = system: MOLT-4 leukemia
# SF-268 CNS = system: SF-268 CNS
# SK-OV-3 ovarian = system: SK-OV-3 ovarian
# SNB-75 CNS = system: SNB-75 CNS
# SW-620 colon = system: SW-620 colon
# DU-145 prostate = system: DU-145 prostate
# NCI/ADR-RES ovarian = system: NCI/ADR-RES ovarian
Structure (SMILES),TGI (CCRF-CEM leukemia) [µM],TGI (HCT-15 colon) [µM],TGI (HL-60(TB) leukemia) [µM],TGI (MOLT-4 leukemia) [µM],TGI (SF-268 CNS) [µM],TGI (SK-OV-3 ovarian) [µM],TGI (SNB-75 CNS) [µM],TGI (SW-620 colon) [µM],GI50 (DU-145 prostate) [µM],TGI (DU-145 prostate) [µM],GI50 (HCT-15 colon) [µM],GI50 (NCI/ADR-RES ovarian) [µM],TGI (NCI/ADR-RES ovarian) [µM],GI50 (SF-268 CNS) [µM],GI50 (SK-OV-3 ovarian) [µM],GI50 (SNB-75 CNS) [µM],GI50 (SW-620 colon) [µM],GI50 (HL-60(TB) leukemia) [µM],GI50 (MOLT-4 leukemia) [µM],GI50 (CCRF-CEM leukemia) [µM]
Cc1cccc(C2=C/C(=C(\SS/C(C(=O)c3ccc(OCC(=O)O)c(Cl)c3Cl)=C3\C=C(c4cccc(C)c4)SS3)C(=O)c3ccc(OCC(=O)O)c(Cl)c3Cl)SS2)c1,19.4,> 51.6,4.71,40.2,39.6,> 100,> 83.5,49.8,,,,,,,,,,,,
COc1cc(/C=C\c2cc(OC)c(OC)c(OC)c2)cc(N/C=C\C(=O)c2c[nH]c3ccccc23)c1OC,,5.63,,,15.6,27,2.92,3.31,2.06,4.08,2.32,3.48,19.3,3.57,12.3,1.47,1.63,,,
CCCC/C(=C\C1=C(C)C(=O)C(OC)=C(OC)C1=O)C(=O)O,,> 100,> 100,> 100,> 100,> 100,> 100,> 100,> 100,> 100,> 100,> 100,> 100,> 100,> 100,25.2,> 100,66.3,6.54,
Nc1nc(-c2ccc(Cl)c([N+](=O)[O-])c2)cs1,> 100,> 100,> 100,> 100,> 100,> 100,92.7,> 100,,,,,,,,,,,,
CN(C(=O)c1ccc([N+](=O)[O-])cc1)c1ccccc1,> 100,> 100,,> 100,> 100,> 100,> 100,> 100,,,,,,,,,,,,
CC(C)(C)c1ccc2c(c1)S(=O)(=O)Nc1ccc(Cl)cc1NS(=O)(=O)c1cc(C(C)(C)C)ccc1OCCOCCOCCO2,> 100,> 100,> 100,> 100,> 100,86.3,59,> 100,,,,,,,,,,,,
COc1cc2c(/C=N\N=C(N)N)c[nH]c2cc1C,27.7,> 100,29.4,27.2,28.7,62.2,,29.6,,,35.8,22,59.4,12.5,25.8,,16.1,15.9,14.2,14.6
COc1cc2c(cc1O)CCN[C@]21CS[C@@H]2c3c(OC(C)=O)c(C)c4c(c3[C@H](COC1=O)N1[C@@H]2[C@H]2c3c(cc(C)c(OC)c3O)C[C@@H]([C@@H]1O)N2C)OCO4,3.11,0.361,0.0114,8.76,0.0486,3.99,,0.13,,1,0.00379,0.00591,2.61,,0.00309,,,,,
CCOCN1COCN(C)C1=O,> 100,> 100,,,> 100,> 100,> 100,> 100,,,,,,,,,,,,
COC(=O)/C(=N/O)C(C(=O)C=C(C)C)C(=O)C(=O)Nc1nc2ccc([N+](=O)[O-])cc2s1 (stereo unspecified),74.7,> 100,> 100,72.9,99.2,63,,> 100,,,,,,,,,,,,
O=C(CC(=O)C1CCOC1=O)C(=O)Nc1cccc(Cl)c1 (stereo unspecified),,> 100,> 100,> 100,> 100,> 100,> 100,> 100,,,,,,,,,,,,
Nc1c(-c2ccccc2-c2c(N)[n+]([O-])c3ccccc3[n+]2[O-])[n+]([O-])c2ccccc2[n+]1[O-],> 28.4,> 100,> 31.3,8.42,> 100,> 100,> 100,> 100,,,,,,,,,,,,
CCCC(=O)C1=C(O)C(Cc2c(O)c(C)c(O)c(C(=O)CCC)c2O)=C(O)C(C)(C)C1=O,20,> 50,,36.3,> 50,> 50,> 50,> 50,,> 50,,,,,,,,,,
N#CC(=Nc1ccccc1N(C(=O)c1ccccc1)C(=O)c1ccccc1)c1ccccc1,> 31.2,> 90.3,> 41.1,> 100,> 100,> 100,> 100,> 62.2,,,,,,,,,,,,
CCN1c2ccccc2-c2c3c1cc(C)cc3c1ccccc1[n+]2CC,2.83,22.6,,3.41,2.04,5.68,2.2,6.63,,,,,,,,,,,,
CC1=C(C#N)C(=O)CC(c2ccc(Cl)cc2)N(C)N1 (stereo unspecified),,> 100,> 100,> 100,> 100,> 100,> 100,> 100,,,,,,,,,,,,
NCCNCC1CCNCC1,,> 100,,> 100,> 100,> 100,> 100,> 100,,> 100,,,> 100,,,,,,,
COC(=O)c1cc2c(o1)-c1nccc3c1c(nc1ccccc13)C2=O,15.5,11.1,4.76,7.28,24.2,39.8,,17.5,4.26,22.9,1.57,2.11,5.68,2.82,10.7,,3.78,2,2.64,3.79
COc1cccc(/C=N/[N-]C(=O)c2ccncc2)c1[O-].COc1cccc(/C=N/[N-]C(=O)c2ccncc2)c1[O-].[O]=[U](=[O])([OH2+])[OH2+],> 30.7,> 100,> 100,> 100,49.4,73.2,62.6,> 100,,,4.77,,,4.83,12.2,12.9,7.81,2.43,1.44,2.06
